# Experimental data taken from patent publication US12240862B2, “Inhibitors of peptidylarginine deiminases” (Gilead Sciences, Inc., priority 2020, dated 2025).
# Target: T1, human PAD4 (Homo sapiens, UniProt Q9UM07)
# T1 construct: human PAD4 (NM_012387), A2P663, was PCR amplified; His-SUMO (N, cleaved yes); made in house; host or cells: E. coli BL21(DE3)
# Assay: In vitro PAD4 BAEE biochemical assay
# Details: human PAD4, BAEE substrate; 5 nM PAD4, 2 mM calcium chloride, 3 mM BAEE; geometric mean of multiple experiments
# Procedure, shortened: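 Ammonia generated from BAEE serves as the readout, measured by o-phthalaldehyde after EDTA termination. Final conditions: 5 nM human PAD4 (SUMO tag cleaved), 2 mM CaCl2, 3 mM BAEE, pH 7.6 MOPS buffer, 25 °C for 2 h following a 30-min compound preincubation.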
# T1 sequence (Q9UM07 2-663): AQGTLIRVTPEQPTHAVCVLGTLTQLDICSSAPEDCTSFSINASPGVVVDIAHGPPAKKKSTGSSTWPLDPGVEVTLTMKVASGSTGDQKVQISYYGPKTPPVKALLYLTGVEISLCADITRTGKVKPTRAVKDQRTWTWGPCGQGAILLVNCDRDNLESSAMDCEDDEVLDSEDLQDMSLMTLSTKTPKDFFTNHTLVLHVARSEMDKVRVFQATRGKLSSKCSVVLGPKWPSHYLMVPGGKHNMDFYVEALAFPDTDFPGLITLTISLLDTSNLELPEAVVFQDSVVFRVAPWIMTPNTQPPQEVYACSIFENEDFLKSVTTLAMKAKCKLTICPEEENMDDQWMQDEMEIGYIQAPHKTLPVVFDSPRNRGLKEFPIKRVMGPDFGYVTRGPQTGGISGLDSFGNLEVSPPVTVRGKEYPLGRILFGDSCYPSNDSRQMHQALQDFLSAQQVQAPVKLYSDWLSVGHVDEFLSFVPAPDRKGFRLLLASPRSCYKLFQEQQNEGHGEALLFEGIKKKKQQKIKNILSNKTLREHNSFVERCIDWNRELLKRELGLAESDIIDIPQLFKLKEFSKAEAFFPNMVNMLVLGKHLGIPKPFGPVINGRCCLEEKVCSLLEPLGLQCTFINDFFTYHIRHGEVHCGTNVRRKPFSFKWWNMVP
row,Compound,IC50 [µM]
1,"COc1cc(C(=O)N2CCC[C@@H](N)[C@H]2C)cc2nc(-c3cc4ccc(N(C(F)F)S(C)(=O)=O)nc4n3CC3CC3)c(C)n12 [Example 411, ~{N}-[2-[7-[(2~{R},3~{R})-3-amino-2-methylpiperidine-1-carbonyl]-5-methoxy-3-methylimidazo[1,2-a]pyridin-2-yl]-1-(cyclopropylmethyl)pyrrolo [2,3-b]pyridin-6-yl]-~{N}-(difluoromethyl) methanesulfonamide]",0.143
2,"COc1cc(C(=O)N2C[C@H](N)CC[C@@H]2C)cc2nc(-c3cc4ccc(N(C(F)F)S(C)(=O)=O)nc4n3CC3CC3)c(C)n12 [Example 412, ~{N}-[2-[7-[(2~{S},5~{R})-5-amino-2-methylpiperidine-1-carbonyl]-5-methoxy-3-methylimidazo [1,2-a]pyridin-2-yl]-1-(cyclopropylmethyl)pyrrolo-[2,3b]pyridin-6-yl]-~{N}-(difluoromethyl) methanesulfonamide]",0.156
3,"COc1cc(C(=O)N2CCC[C@@H](N)C2)cc2nc(-c3cc4ccc(N(C(F)F)S(=O)(=O)C5CC5)nc4n3CC3CC3)c(C)n12 [Example 413, ~{N}-[2-[7-[(3~{R})-3-aminopiperidine-1-carbonyl]-5-methoxy-3-methylimidazo [1,2-a]pyridin-2-yl]-1-(cyclopropylmethyl)pyrrolo [2,3-b]pyridin-6-yl]-~{N}-(difluoromethyl) cyclopropanesulfonamide]",0.253
4,"COc1cc(C(=O)N2[C@@H]3CC[C@H]2[C@@H](N)[C@@H](O)C3)cc2nc(-c3cc4ccc(N(C(F)F)S(C)(=O)=O)nc4n3CC3CC3)c(C)n12 [Example 414, ~{N}-[2-[7-[(1~{S}, 2~{R},3~{S},5~{R})-2-amino-3-hydroxy-8-azabicyclo[3.2.1]octane-8-carbonyl]-5-methoxy-3-methylimidazo [1,2-a]pyridin-2-yl]-1-(cyclopropylmethyl)pyrrolo [2,3-b]pyridin-6-yl]-~{N}-(difluoromethyl) methanesulfonamide]",5.25
5,"COc1cc(C(=O)N2CC[C@H]3CCNC[C@H]32)cc2nc(-c3cc4ccc(N(C(F)F)S(C)(=O)=O)nc4n3CC3CC3)c(C)n12 [Example 415, ~{N}-[2-[7-[(3~{a}~{R},7~{a}~{S})-2,3,3~{a},4,5,6,7,7~{a}-octahydropyrrolo[2,3-c]pyridine-1-carbonyl]-5-methoxy-3-methylimidazo[1,2-a]pyridin-2-yl]-1-(cyclopropylmethyl)pyrrolo [2,3-b]pyridin-6-yl]-~{N}-(difluoromethyl) methanesulfonamide]",27.9
6,"COc1cc(C(=O)N2[C@H]3CC[C@@H]2[C@H](N)[C@H](O)C3)cc2nc(-c3cc4ccc(N(C(F)F)S(C)(=O)=O)nc4n3CC3CC3)c(C)n12 [Example 416, ~{N}-[2-[7-[(1~{R},2~{S},3~{R}, 5~{S})-2-amino-3-hydroxy-8-azabicyclo[3.2.1]octane-8-carbonyl]-5-methoxy-3-methylimidazo[1,2-a]pyridin-2-yl]-1-(cyclopropylmethyl)pyrrolo [2,3-b]pyridin-6-yl]-~{N}-(difluoromethyl) methanesulfonamide]",0.337
7,"COc1cc(C(=O)N2CC[C@@H]3CCNC[C@H]32)cc2nc(-c3cc4ccc(N(C(F)F)S(C)(=O)=O)nc4n3CC3CC3)c(C)n12 [Example 418, ~{N}-[2-[7-[(3~{a}~{S}, 7~{a}~{S})-2,3,3~{a},4,5,6,7,7~{a}-octahydropyrrolo[2,3-c]pyridine-1-carbonyl]-5-methoxy-3-methylimidazo[1,2-a]pyridin-2-yl]-1-(cyclopropylmethyl)pyrrolo [2,3-b]pyridin-6-yl]-~{N}-(difluoromethyl) methanesulfonamide]",0.151
8,COc1cc(C(=O)N2CC[C@@H]3CCN[C@@H]3C2)cc2nc(-c3cc4ccc(N(C(F)F)S(C)(=O)=O)nc4n3CC3CC3)c(C)n12 [Example 419],1.17
9,"COc1cc(C(=O)N2CC[C@H]3CCN[C@H]3C2)cc2nc(-c3cc4ccc(N(C(F)F)S(C)(=O)=O)nc4n3CC3CC3)c(C)n12 [Example 420, ~{N}-[2-[7-[(3~{a}~{R},7~{a}~{R})-1,2,3,3~{a},4,5,7,7~{a}-octahydropyrrolo[2,3-c]pyridine-6-carbonyl]-5-methoxy-3-methylimidazo [1,2-a]pyridin-2-yl]-1-(cyclopropylmethyl)pyrrolo [2,3-b]pyridin-6-yl]-~{N}-(difluoromethyl) methanesulfonamide]",0.0606
10,"CNc1cc(C(=O)N2CCC[C@@H](N)C2)cc2nc(-c3cc4ccc(N(C(F)F)S(C)(=O)=O)nc4n3CC3CC3)c(C)n12 [Example 421, ~{N}-[2-[7-[(3~{R})-3-aminopiperidine-1-carbonyl]-3-methyl-5-(methylamino)imidazo[1,2-a]pyridin-2-yl]-1-(cyclopropylmethyl)pyrrolo [2,3-b]pyridin-6-yl]-~{N}-(difluoromethyl) methanesulfonamide]",0.341
11,"Cc1c(-c2cc3ccc(N(C(F)F)S(C)(=O)=O)nc3n2CC2CC2)nc2cc(C(=O)N3CCC[C@@H](N)C3)cc(N(C)C)n12 [Example 422, ~{N}-[2-[7-[(3~{R})-3-aminopiperidine-1-carbonyl]-5-(dimethylamino)-3-methylimidazo[1,2-a]pyridin-2-yl]-1-(cyclopropylmethyl)pyrrolo [2,3-b]pyridin-6-yl]-~{N}-(difluoromethyl) methanesulfonamide]",6.37
12,"Cc1c(-c2cc3ccc(N(C(F)F)S(C)(=O)=O)nc3n2CC2CC2)nc2cc(C(=O)N3CCC[C@@H](N)C3)cc(C(F)F)n12 [Example 423, ~{N}-[2-[7-[(3~{R})-3-aminopiperidine-1-carbonyl]-5-(difluoromethyl)-3-methylimidazo[1,2-a]pyridin-2-yl]-1-(cyclopropylmethyl)pyrrolo [2,3-b]pyridin-6-yl]-~{N}-(difluoromethyl) methanesulfonamide]",1.77
13,"Cc1c(-c2cc3ccc(N(C(F)F)S(C)(=O)=O)nc3n2CC2CC2)nc2cc(C(=O)N3CCC[C@@H](N)C3)cc([S+](C)[O-])n12 (some centres unmarked) [Example 424, ~{N}-[2-[7-[(3~{R})-3-aminopiperidine-1-carbonyl]-3-methyl-5-methylsulfinylimidazo[1,2-a]pyridin-2-yl]-1-(cyclopropylmethyl)pyrrolo [2,3-b]pyridin-6-yl]-~{N}-(difluoromethyl) methanesulfonamide]",18
14,"Cc1cc(C(=O)N2CCC[C@@H](N)C2)cc2nc(-c3cc4ccc(N(C(F)F)S(C)(=O)=O)nc4n3CC3CC3)c(C)n12 [Example 426, ~{N}-[2-[7-[(3~{R})-3-aminopiperidine-1-carbonyl]-3,5-dimethylimidazo [1,2-a]pyridin-2-yl]-1-(cyclopropylmethyl)pyrrolo [2,3-b]pyridin-6-yl]-~{N}-(difluoromethyl) methanesulfonamide]",0.125
15,"CCc1cc(C(=O)N2CCC[C@@H](N)C2)cc2nc(-c3cc4ccc(N(C(F)F)S(C)(=O)=O)nc4n3CC3CC3)c(C)n12 [Example 427, ~{N}-[2-[7-[(3~{R})-3-aminopiperidine-1-carbonyl]-5-ethyl-3-methylimidazo [1,2-a]pyridin-2-yl]-1-(cyclopropylmethyl)pyrrolo [2,3-b]pyridin-6-yl]-~{N}-(difluoromethyl) methanesulfonamide]",0.0947
16,"Cc1c(-c2cc3ccc(N(C(F)F)S(C)(=O)=O)nc3n2CC2CC2)nc2cc(C(=O)N3CCC[C@@H](N)C3)cc(C3CC3)n12 [Example 428, ~{N}-[2-[7-[(3~{R})-3-aminopiperidine-1-carbonyl]-5-cyclopropyl-3-methylimidazo [1,2-a]pyridin-2-yl]-1-(cyclopropylmethyl)pyrrolo [2,3-b]pyridin-6-yl]-~{N}-(difluoromethyl) methanesulfonamide]",1.02
17,"COc1cc(C(=O)N2[C@H]3CC[C@@H]2[C@H](N)C3)cc2nc(-c3cc4ccc(N(C(F)F)S(C)(=O)=O)nc4n3CC3CC3)c(CC(C)C)n12 [Example 429, ~{N}-[2-[7-[(1~{R},2~{R}, 4~{S})-2-amino-7-azabicyclo[2.2.1]heptane-7-carbonyl]-5-methoxy-3-(2-methylpropyl)imidazo[1,2-a]pyridin-2-yl]-1-(cyclopropylmethyl)pyrrolo [2,3-b]pyridin-6-yl]-~{N}-(difluoromethyl) methanesulfonamide]",0.851
18,"COc1cc(C(=O)N2CCC[C@@H](N)C2)cc2nc(-c3cc4ccc(N(C(F)F)S(C)(=O)=O)nc4n3CC3CC3)c(CC(C)C)n12 [Example 430, ~{N}-[2-[7-[(3~{R})-3-aminopiperidine-1-carbonyl]-5-methoxy-3-(2-methylpropyl)imidazo [1,2-a]pyridin-2-yl]-1-(cyclopropylmethyl)pyrrolo [2,3-b]pyridin-6-yl]-~{N}-(difluoromethyl) methanesulfonamide]",0.943
19,"CNC(=O)C1CC1c1c(-c2cc3ccc(N(C(F)F)S(C)(=O)=O)nc3n2CC2CC2)nc2cc(C(=O)N3CCC[C@@H](N)C3)ccn12 (some centres unmarked) [Example 431, 2-[7-[(3~{R})-3-aminopiperidine-1-carbonyl]-2-[1-(cyclopropylmethyl)-6-[difluoromethyl (methylsulfonyl)amino]pyrrolo[2,3-b]pyridin-2-yl]imidazo[1,2-a]pyridin-3-yl]-~{N}-methylcyclopropane-1-carboxamide]",2.03
20,"CCOC(=O)C1CC1c1c(-c2cc3ccc(N(C(F)F)S(C)(=O)=O)nc3n2CC2CC2)nc2cc(C(=O)N3CCC[C@@H](N)C3)ccn12 (some centres unmarked) [Example 432, ethyl 2-[7-[(3~{R})-3-aminopiperidine-1-carbonyl]-2-[1-(cyclopropylmethyl)-6-[difluoromethyl (methylsulfonyl)amino]pyrrolo[2,3-b]pyridin-2-yl]imidazo[1,2-a]pyridin-3-yl]cyclopropane-1-carboxylate]",2.49
